Columns and labels:
[1] = molecular target: T1, human ASK1 kinase (Homo sapiens, UniProt Q99683); assay: Determination of ASK1 inhibitor activity (IMAP FP assay of example 52 or AlphaLISA assay of example 53)
T1 sequence (Q99683 1-1374): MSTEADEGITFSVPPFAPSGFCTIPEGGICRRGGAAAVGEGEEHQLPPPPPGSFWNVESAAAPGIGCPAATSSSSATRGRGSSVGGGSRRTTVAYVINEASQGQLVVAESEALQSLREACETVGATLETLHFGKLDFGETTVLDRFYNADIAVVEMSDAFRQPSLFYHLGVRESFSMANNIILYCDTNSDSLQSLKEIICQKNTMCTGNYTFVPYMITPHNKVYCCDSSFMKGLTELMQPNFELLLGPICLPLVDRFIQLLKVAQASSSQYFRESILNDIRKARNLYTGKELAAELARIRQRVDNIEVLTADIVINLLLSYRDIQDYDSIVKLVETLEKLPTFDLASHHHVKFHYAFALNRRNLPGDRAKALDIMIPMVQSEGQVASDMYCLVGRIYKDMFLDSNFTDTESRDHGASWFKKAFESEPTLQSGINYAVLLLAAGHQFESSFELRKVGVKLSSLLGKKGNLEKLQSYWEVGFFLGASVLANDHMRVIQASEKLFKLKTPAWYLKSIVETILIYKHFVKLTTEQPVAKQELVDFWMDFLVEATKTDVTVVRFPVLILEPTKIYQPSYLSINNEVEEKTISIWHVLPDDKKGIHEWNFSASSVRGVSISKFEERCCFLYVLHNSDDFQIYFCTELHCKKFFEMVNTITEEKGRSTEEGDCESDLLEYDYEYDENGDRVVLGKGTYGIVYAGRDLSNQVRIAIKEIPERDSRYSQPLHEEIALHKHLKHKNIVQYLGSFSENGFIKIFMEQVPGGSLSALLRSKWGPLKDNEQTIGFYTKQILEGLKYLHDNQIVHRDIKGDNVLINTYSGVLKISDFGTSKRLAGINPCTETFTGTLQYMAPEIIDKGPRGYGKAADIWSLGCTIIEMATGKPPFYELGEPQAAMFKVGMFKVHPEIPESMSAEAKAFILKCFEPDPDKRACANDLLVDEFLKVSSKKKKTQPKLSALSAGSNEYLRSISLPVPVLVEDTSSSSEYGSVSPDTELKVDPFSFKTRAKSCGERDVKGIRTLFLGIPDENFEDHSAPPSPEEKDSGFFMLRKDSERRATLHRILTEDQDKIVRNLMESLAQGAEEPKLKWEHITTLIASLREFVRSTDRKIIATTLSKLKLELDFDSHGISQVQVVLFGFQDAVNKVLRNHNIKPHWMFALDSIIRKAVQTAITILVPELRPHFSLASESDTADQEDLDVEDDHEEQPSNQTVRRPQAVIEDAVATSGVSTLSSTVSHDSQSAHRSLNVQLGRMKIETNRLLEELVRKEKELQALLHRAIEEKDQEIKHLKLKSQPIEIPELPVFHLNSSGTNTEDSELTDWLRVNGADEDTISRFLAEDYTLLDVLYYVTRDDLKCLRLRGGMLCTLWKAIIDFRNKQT

[2] = test system: CCI-induced mechanical allodynia; conditions: rat CCI model
[3] = test system: FCA-induced inflammatory mechanical hypersensitivity

| Structure (SMILES) | IC50 [1] | effect on mechanical allodynia caused by nerve injury in the CCI model [2] | effect on inflammatory mechanical hypersensitivity caused by FCA (weightbearing) ([3]; dosed orally 24 hours after FCA injection, at 30 mg/kg) | effect on inflammatory mechanical hypersensitivity (FIG. 2, weightbearing) ([3]; rats, 3 mg/kg po and 30 mg/kg po, 24 hours after intraplantar FCA, measured 1 hour after dosing) |
| --- | --- | --- | --- | --- |
| O=C(NC1CCN(c2nc[nH]c3nccc2-3)CC1)c1ccc(N2CCCC2)cc1 [4-(1-pyrrolidinyl)-N-[1-(1H-pyrrolo[2,3-d]pyrimidin-4-yl)-4-piperidinyl]benzamide] | 25.1 µM |  |  |  |
| Cc1c[nH]c2ncnc(N3CCC(NC(=O)c4ccccc4)CC3)c12 [Example 17] |  | partially reversed the mechanical allodynia | partially reverse the inflammatory mechanical hypersensitivity | reverses inflammatory mechanical hypersensitivity |
